Experiments:
FROUNT-CCR2 interaction = molecular target: T1, FROUNT-CCR2 interaction (Homo sapiens, UniProt Q9BW27); assay: HTRF FROUNT-CCR2 interaction assay; type: binding
T1 construct: GST-fused FROUNT (FNT-C)
T1 sequence (Q9BW27 500-656 limits assumed): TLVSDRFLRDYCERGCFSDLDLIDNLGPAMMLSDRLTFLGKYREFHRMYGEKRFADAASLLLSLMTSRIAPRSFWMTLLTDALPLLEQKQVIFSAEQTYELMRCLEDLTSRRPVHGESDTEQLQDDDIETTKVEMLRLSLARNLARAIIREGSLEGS

[1] = molecular target: T2, Full-length FROUNT protein (Homo sapiens, UniProt Q9BW27); assay: Surface plasmon resonance binding to FROUNT; details: SPR, concentration-dependent
T2 construct: made in house
T2 sequence (Q9BW27 1-656): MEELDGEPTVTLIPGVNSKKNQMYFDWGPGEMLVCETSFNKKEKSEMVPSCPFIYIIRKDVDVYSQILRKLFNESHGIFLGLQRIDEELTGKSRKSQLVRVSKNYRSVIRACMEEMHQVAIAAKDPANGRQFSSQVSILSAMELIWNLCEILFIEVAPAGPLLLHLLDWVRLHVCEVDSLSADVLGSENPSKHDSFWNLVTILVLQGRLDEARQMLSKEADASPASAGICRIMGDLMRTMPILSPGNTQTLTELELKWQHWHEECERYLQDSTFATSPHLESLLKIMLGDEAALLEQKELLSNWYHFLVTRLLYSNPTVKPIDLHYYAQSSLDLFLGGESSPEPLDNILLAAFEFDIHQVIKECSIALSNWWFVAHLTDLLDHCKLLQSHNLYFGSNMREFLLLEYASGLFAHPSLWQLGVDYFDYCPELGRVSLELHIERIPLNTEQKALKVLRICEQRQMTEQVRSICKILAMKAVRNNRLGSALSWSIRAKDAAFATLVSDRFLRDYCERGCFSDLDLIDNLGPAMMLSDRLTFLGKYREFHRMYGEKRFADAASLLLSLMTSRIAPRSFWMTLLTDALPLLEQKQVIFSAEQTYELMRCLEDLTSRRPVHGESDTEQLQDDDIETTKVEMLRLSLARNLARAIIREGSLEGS
Description: Interactions between FROUNT and library compounds were analyzed by surface plasmon resonance using a Biacore T100 (GE Healthcare). Full-length FROUNT protein or the FROUNT-binding region of CCR2 was immobilized on the CM5 sensor chip[56]. […] The resonance unit (RU) was measured during the binding and washing periods, and the binding kinetics were analyzed. Solvent correction with DMSO was performed using Biacore T100 evaluation software.

C603S FROUNT = molecular target: T3, C603S FROUNT (Homo sapiens, UniProt Q9BW27, C603S/L538E/P612S); assay: NMR titration of C603S FROUNT mutant; type: binding; details: 50 µM DSF, 50 µM mutant
T3 construct: 50 µM CRBD of FROUNT (a.a. 532–656) bearing the L538E/P612S mutations or its mutant (C603S); made in house
T3 sequence (Q9BW27 532-656 L538E/C603S/P612S): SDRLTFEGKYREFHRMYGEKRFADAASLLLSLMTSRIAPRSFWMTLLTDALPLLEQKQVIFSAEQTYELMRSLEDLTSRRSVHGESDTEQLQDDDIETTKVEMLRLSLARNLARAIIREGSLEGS
Description: All ^1H–^15N heteronuclear single quantum correlation (HSQC) NMR spectra were measured at 25 °C on a Bruker 600-MHz AVANCE III spectrometer with a cryogenic probe. […] The assignments of the backbone ^1H^N and ^15N NMR signals of CRBD were performed, based on the previous paper. […] Combined chemical shift differences Δδ was calculated by Δδ = [(ΔδHN)^2 + (ΔδN/6.5)^2]^1/2, where ΔδHN and ΔδN are the chemical shift differences for ^1H^N and ^15N, respectively.

THP-1 cells = assay: Cell viability alongside chemotaxis assay; type: cell-based, human; details: at the concentrations tested in chemotaxis
[2] = system: Lewis lung carcinoma (LLC); assay: LLC lung metastasis model; type: in vivo, C57BL/6 mice; details: LLC i.v.; DSF 40 mg kg-1 i.p. daily
Description: For evaluating subcutaneous tumor growth, LLC or B16 cells (5 × 10^5) in 50 μl PBS were inoculated subcutaneously into the right flanks of mice. Mice were euthanized when their tumor volumes reached 4000 mm^3. Tumor sizes were measured twice a week using calipers. Tumor volume was calculated using the following formula: Volume = (width)^2 × length/2. For the lung metastasis model, 1 × 10^6 LLC or B16 cells in 200 μl PBS were injected intravenously into mice. Mice were euthanized at day 10 after tumor injection for the LLC model and day 5–9 for the B16 model, and the lungs were isolated after perfusion with PBS via the left ventricle. Visible lung metastases were counted in the left lobe. The diameters of metastatic nodules in the lung lobe image were measured using ImageJ software. […] Anti-PD-1 antibody (clone J43, BioXcell) was injected intraperitoneally at a dose of 200 μg per mouse on day 5, 8, 14, and 18 after tumor inoculation.

[3] = system: MMTV-PyVT spontaneous mammary tumor; assay: MMTV-PyVT spontaneous mammary tumor model; type: in vivo, mice; details: treatment from age of 17 weeks
[4] = system: LLC tumor cells co-cultured with monocytes; assay: Tumor cell co-culture with monocytes/macrophages; type: cell-based, mice; details: nano-molar concentrations of DSF
Description: Monocytes were enriched from bone marrow cells by MACS negative selection for CD3, B220, Ly-6G, NK1.1, Ter119, CD49b, and c-kit. The percentage of Ly-6C^hi Ly-6G^− monocytes were >80%. Monocytes (1 × 10^5) and 100 DsRed^+ LLC tumor cells were co-cultured for 24 h. Proliferating tumor cell clusters containing more than 10 cells were enumerated by fluorescent microscopy. For flow cytometry analysis, cultured cells were harvested with trypsin-EDTA after 3 days of culture. Cells were stained with CD45-FITC (clone 102, BioLegend), then stained with annexin V-APC in binding buffer (BD biosciences). For detection of DNA synthesis, 5-ethynyl-2´-deoxyuridine (EdU) was added to the culture in the final hour of incubation. Intracellular EdU was stained using Click-iT® EdU Alexa Fluor™ 647 flow cytometry assay kits (Thermo Fisher Scientific) according to manufacturer’s instructions. Flow cytometry data were obtained by gating CD45(−) DsRed(+) cells and analyzing annexin V-positive cells or EdU-positive cells. Dead cells were excluded by Zombie Aqua staining (BioLegend). Stained cells were measured using Flow-Count™ Fluorospheres (Beckman Coulter) for the determination of absolute counts.

inhibition of FROUNT-CCR2 interaction (FROUNT-CCR2 interaction; HTRF): specifically inhibited
IC50 (FROUNT-CCR2 interaction; HTRF titration assay): 42 nM
binding to FROUNT protein [1]: directly binds
binding to C603S FROUNT (C603S FROUNT): No significant binding
Compound: CCN(CC)C(=S)SSC(=S)N(CC)CC [DSF, disulfiram]
cytotoxicity (cell viability) (THP-1 cells): without any cytotoxicity
lung metastatic nodule formation [2]: significantly reduced
growth of established tumors [3]: impaired
tumor cell growth induced by co-culture with monocytes [4]: inhibited
